Experimental data reported in ChEMBL document CHEMBL1201862, “PubChem BioAssay data set” (2004).
Active and inactive are the calls of the source.

Experiments:
Cytochrome P450 2C9 = Cytochrome P450 2C9 (Homo sapiens, UniProt P11712)
Cytochrome P450 2D6 = Cytochrome P450 2D6 (Homo sapiens, UniProt P10635);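 note: CYP2D6 member of a cytochrome P450 panel assay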
Cytochrome P450 2C19 = Cytochrome P450 2C19 (Homo sapiens, UniProt P33261); experiment: Cytochrome panel assay with activity outcomes. Panel member name: p450-cyp2c19 Compounds with AC50 equal or less than 10 uM are considered active; type: functional
Cytochrome P450 3A4 = Cytochrome P450 3A4 (Homo sapiens, UniProt P08684);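 note: CYP3A4 tested as one member of a cytochrome P450 panel screen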
[1] = target: T1, Heat shock factor protein 1 (Mus musculus, UniProt P38532); experiment: inhibition of MG132-induced HSE-luciferase signal, confirmation, cell-based, NIH3T3, luminescence, dose retest (AID 2382); type: functional;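 note: NIH3T3 fibroblasts with HSF1-driven luciferase reporter stressed by proteasome inhibitor MG132; luminescence from HSF1-driven luciferase expression after 8 hours of MG132 stress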
T1 sequence (P38532 whole entry): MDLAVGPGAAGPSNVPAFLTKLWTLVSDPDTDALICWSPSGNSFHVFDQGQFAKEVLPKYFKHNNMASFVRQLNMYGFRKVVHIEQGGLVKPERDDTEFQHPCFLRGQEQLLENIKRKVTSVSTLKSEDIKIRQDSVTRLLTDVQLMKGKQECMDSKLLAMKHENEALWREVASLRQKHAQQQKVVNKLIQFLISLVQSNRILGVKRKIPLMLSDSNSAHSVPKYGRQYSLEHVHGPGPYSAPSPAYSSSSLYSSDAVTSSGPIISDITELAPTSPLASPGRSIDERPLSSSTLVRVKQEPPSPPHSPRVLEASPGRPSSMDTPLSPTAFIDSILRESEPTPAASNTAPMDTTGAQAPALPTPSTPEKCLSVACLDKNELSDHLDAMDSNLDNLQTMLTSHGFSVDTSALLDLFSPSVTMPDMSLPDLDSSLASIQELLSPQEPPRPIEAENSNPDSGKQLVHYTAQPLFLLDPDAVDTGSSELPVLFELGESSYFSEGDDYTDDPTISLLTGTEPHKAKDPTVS

Large T antigen = Large T antigen (Simian virus 40, UniProt P03070); type: functional, Betapolyomavirus macacae;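 note: Confirmatory-stage PubChem screen for compounds that inhibit SV40 T antigen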
INS1 = experiment: beta cell apoptosis inhibitors, cytokine rescue, dose response, luminescence, retest (AID 449756); type: functional, cell-based; conditions: Rattus norvegicus;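 note: cell death triggered by IL-1 beta plus TNF-alpha plus IFN-gamma mixture; protective hits raise ATP signal compared with cytokine alone wells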
[2] = inhibitors of intracellular T. cruzi replication, confirmation, NIH3T3 host cells, beta-gal luminescence (AID 2044); type: functional, cell-based;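 note: intracellular parasites grown in NIH/3T3 mouse fibroblasts as host cells; luminescent beta-galactosidase reporter signal from transgenic T. cruzi replicating inside host cells; inhibitors lower the luminescence signal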
[3] = cytotoxicity toward NIH3T3 fibroblasts, dose response, counter-screen, cell-based, ATP luminescence, mouse fibroblasts (AID 2010); type: functional;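 note: cells exposed to compound for about 90 hours before reading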
Protein RecA = target: T2, Protein RecA (Mycobacterium tuberculosis, UniProt P9WHJ3); experiment: Fluorescence Cell-Free Homogeneous Dose Retest to Identify Inhibitors of RecA-Intein Splicing Activity. [Related pubchem assays (depositor defined):AID2097, AID2223, AID489010, AID492950]; type: functional
T2 sequence (P9WHJ3 whole entry): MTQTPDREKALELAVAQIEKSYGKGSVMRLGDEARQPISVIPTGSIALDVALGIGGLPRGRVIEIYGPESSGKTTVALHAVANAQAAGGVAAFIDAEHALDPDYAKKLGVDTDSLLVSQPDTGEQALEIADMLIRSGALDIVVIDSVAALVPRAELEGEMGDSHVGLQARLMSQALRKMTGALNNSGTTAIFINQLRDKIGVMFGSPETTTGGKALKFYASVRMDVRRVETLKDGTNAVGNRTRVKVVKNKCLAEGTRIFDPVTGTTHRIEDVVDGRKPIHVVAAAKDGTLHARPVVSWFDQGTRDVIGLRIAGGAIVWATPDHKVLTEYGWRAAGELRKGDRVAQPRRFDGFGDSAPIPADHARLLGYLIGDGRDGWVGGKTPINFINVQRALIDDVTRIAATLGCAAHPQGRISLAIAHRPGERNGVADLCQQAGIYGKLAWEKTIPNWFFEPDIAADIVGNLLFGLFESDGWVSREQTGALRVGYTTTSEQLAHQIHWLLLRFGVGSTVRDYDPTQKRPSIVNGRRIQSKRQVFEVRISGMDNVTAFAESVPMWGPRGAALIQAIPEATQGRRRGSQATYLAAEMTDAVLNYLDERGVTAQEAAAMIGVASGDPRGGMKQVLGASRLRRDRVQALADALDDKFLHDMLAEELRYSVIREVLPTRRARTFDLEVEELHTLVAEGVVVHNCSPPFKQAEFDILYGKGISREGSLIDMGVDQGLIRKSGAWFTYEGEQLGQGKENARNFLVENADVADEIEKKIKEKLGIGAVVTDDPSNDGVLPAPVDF

[4] = target: T3, Replicative DNA helicase DnaB (Mycobacterium tuberculosis, UniProt P9WMR3); experiment: DnaB intein splicing inhibitors, dose response, biochemical, cell-free fluorescence (AID 449749); type: functional
T3 sequence (P9WMR3 whole entry): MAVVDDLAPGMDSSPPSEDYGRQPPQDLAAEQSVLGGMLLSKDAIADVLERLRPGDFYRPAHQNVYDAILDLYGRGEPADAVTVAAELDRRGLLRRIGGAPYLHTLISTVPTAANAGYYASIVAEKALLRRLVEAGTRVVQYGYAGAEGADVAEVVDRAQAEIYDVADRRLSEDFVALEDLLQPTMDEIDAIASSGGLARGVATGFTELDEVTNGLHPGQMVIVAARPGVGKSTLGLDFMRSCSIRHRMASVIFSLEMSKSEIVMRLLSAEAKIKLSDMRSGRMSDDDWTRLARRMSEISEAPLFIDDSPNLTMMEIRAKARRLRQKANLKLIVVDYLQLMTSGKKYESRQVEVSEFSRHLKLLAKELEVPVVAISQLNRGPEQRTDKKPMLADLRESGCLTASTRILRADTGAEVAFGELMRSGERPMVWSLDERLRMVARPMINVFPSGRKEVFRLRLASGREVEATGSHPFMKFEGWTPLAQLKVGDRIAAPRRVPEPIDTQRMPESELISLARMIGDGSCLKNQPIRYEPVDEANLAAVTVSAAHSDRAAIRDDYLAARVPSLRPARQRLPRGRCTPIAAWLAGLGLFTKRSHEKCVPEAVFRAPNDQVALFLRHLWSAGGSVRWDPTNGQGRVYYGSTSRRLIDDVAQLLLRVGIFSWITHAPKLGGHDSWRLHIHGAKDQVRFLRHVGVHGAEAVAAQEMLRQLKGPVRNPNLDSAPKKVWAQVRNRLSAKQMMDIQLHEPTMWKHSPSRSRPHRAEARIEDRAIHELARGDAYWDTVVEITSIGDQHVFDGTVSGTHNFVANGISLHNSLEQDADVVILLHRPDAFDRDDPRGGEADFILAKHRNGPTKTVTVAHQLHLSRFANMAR

Large T antigen, sequence (P03070 whole entry): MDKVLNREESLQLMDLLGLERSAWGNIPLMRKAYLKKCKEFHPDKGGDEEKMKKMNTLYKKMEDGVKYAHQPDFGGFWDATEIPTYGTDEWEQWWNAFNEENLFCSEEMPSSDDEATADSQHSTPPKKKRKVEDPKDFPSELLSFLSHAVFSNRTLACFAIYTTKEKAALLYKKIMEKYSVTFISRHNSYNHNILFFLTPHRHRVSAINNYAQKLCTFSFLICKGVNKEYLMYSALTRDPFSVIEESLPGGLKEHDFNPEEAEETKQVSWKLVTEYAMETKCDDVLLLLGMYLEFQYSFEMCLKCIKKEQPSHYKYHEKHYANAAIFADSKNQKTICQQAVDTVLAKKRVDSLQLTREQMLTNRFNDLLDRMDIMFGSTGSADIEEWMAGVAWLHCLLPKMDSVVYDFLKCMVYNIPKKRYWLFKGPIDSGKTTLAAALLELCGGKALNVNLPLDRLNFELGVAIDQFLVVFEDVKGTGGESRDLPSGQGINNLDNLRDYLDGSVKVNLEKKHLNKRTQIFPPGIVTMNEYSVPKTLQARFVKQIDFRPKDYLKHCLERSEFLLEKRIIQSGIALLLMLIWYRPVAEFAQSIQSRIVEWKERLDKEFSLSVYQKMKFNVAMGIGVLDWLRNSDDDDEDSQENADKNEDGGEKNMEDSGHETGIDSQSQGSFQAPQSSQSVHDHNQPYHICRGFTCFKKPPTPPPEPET
Cytochrome P450 2C9, sequence (P11712 whole entry): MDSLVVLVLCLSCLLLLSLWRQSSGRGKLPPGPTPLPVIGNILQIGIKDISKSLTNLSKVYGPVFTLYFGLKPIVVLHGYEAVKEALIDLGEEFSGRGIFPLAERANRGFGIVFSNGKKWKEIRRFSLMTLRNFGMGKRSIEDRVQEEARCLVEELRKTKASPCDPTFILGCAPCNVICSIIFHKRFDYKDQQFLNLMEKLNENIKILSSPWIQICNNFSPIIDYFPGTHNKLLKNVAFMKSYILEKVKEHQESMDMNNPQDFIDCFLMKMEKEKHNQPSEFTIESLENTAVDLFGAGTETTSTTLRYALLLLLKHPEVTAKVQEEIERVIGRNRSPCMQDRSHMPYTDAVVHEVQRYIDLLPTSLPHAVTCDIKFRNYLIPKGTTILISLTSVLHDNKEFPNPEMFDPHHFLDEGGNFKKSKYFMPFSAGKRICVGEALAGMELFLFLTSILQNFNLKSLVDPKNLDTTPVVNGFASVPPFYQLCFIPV
Cytochrome P450 2D6, sequence (P10635 whole entry): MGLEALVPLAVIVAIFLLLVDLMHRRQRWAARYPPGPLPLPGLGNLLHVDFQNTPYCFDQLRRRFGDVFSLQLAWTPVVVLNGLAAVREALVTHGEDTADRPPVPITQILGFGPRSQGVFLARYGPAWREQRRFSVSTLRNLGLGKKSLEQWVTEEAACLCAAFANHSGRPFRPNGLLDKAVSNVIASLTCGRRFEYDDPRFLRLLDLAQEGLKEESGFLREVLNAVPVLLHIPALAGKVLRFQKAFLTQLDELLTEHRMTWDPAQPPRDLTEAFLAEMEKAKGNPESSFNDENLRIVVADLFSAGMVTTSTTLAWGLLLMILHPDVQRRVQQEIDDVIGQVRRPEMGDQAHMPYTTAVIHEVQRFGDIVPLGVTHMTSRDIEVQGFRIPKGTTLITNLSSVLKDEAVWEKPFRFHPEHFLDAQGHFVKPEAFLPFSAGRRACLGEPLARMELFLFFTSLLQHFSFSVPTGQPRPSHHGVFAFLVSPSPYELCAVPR
Cytochrome P450 3A4, sequence (P08684 whole entry): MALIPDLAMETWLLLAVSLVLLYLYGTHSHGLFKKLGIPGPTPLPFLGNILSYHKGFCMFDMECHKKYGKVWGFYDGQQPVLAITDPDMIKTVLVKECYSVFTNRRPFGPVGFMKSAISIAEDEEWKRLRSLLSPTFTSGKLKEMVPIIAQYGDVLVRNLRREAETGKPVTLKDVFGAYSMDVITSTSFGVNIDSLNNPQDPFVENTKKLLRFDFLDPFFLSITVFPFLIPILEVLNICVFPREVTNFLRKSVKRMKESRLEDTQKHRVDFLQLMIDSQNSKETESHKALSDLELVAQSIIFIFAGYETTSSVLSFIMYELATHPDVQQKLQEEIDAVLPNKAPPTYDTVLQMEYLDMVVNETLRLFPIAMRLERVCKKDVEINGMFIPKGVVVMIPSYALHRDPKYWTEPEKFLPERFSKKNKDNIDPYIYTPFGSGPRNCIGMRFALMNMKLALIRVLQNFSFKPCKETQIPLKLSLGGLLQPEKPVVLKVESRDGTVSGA
Cytochrome P450 2C19, sequence (P33261 whole entry): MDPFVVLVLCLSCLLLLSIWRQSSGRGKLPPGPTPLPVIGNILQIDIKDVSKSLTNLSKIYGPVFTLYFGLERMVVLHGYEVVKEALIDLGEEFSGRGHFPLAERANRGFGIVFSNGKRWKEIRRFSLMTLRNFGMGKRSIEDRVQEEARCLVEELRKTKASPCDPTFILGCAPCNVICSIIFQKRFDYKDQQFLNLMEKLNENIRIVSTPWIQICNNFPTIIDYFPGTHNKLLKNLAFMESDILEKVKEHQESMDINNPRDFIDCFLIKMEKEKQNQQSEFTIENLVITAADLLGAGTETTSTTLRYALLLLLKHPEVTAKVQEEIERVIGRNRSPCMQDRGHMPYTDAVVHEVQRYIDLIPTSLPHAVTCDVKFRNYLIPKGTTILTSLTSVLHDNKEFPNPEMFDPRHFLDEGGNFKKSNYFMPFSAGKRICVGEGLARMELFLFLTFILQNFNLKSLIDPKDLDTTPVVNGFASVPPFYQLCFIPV

Cc1cc(=O)oc(C)c1C(=O)NCCCN1CCN(c2ccc(F)cc2)CC1
AC50 (Cytochrome P450 2C9): 15.8 µM (inconclusive) | AC50 (Cytochrome P450 2D6): 15.8 µM (inconclusive)

c1ccc(-c2n[nH]c(-c3ccccc3)c2-c2nc3ccccc3[nH]2)cc1
AC50 (Cytochrome P450 2C19; read-out: AC50): 22.4 µM (inconclusive)

O=C(c1ccccc1)N1CCSC1=S
AC50 (Cytochrome P450 2C19; read-out: AC50): 25.1 µM (inconclusive)

Cc1nc2ccccn2c1C(=O)CSc1ccccc1Cl
AC50 (Cytochrome P450 3A4): 12.6 µM (inconclusive) | AC50 (Cytochrome P450 2D6): 25.1 µM (inconclusive)

NC(=O)C1CCN(C(=O)OCc2ccccc2)CC1
AC50 (Cytochrome P450 2C19; read-out: AC50): 11.2 µM (inconclusive)

CCOc1ccc(NC(=O)c2cccnc2C(=O)O)cc1
EC50 [1]: > 195 µM (not active)

O=C(CSc1nnc(CCc2ccccc2)n1-c1ccc(Cl)cc1)c1ccccc1
EC50 [1]: > 195 µM (not active)

O=C1/C(=C/c2ccncc2)SC(=S)N1Nc1ccccc1
IC50 (Large T antigen): 12.7 µM (active)

COCCCN(Cc1ccco1)C(=O)CSc1nc2ccc[nH]c-2n1
EC50 [1]: > 195 µM (not active)

COC(=O)CN1C(=O)Nc2ccc(C)cc2C1c1ccccc1 (stereo not given)
EC50 [1]: > 195 µM (not active)

CCC(=O)N(C)/C=C1\Sc2ccccc2C1=O
AC50 (Cytochrome P450 3A4): 14.1 µM (inconclusive) | AC50 (Cytochrome P450 2C9): 12.6 µM (inconclusive)

Cc1cnc(CNc2nc(-c3ccccc3C)nc3ccccc23)cn1
AC50 (Cytochrome P450 3A4): 10 µM (inconclusive) | AC50 (Cytochrome P450 2D6): 39.8 µM (inconclusive)

O=C(COc1cccnc1[N+](=O)[O-])Nc1cc(S(=O)(=O)N2CCCCC2)ccc1Cl
EC50 [1]: > 195 µM (not active)

O=C1O[C@@H]([C@H](O)[C@H](O)[C@H](O)CO)[C@@H](O)[C@@H]1O
AC50 (Cytochrome P450 2C19): inconclusive

COc1ccccc1CNC(=O)Cn1nnc(-c2ccncc2)n1
AC50 (Cytochrome P450 3A4): 3.16 µM (inconclusive) | AC50 (Cytochrome P450 2D6): 2.24 µM (inconclusive)

Cn1c(=O)c2c(nc(S)n2Cc2ccc(Cl)cc2)n(C)c1=O
IC50 (Large T antigen): 16.2 µM (active)

Fc1ccc(Oc2nc(-c3ccccn3)nc3ccccc23)cc1
AC50 (INS1): 4.84 µM (active)

CC[C@@H]1C/C=C\Cc2ccccc2[C@H](C(=O)C[C@@H](O)CC(C)=O)OC1=O
AC50 (INS1): > 260 µM (inactive)

CN1CCN(c2ncc3ncc(=O)n(CCc4ccccc4)c3n2)CC1
AC50 (Cytochrome P450 3A4): 15.8 µM (inconclusive) | AC50 (Cytochrome P450 2D6): 20 µM (inconclusive)

COc1cc(CNc2ccc(N3CCOCC3)cc2)ccc1OCC(=O)NC(C)(C)C
IC50 (Large T antigen): 4.16 µM (active)

CCN1C(=O)C2(C(C(=O)c3cc4ccccc4o3)=C(O)C(=O)N2CCCN(C)C)c2ccccc21 (stereo not given)
IC50 (Large T antigen): 52.4 µM (active)

Cc1cccc(C(=O)NNC(=O)C2CCCO2)c1 (stereo not given)
AC50 (Cytochrome P450 2C19; read-out: AC50): 5.01 µM (inconclusive)

COc1ccccc1CN1CC2(CCN(C(=O)c3cnccn3)CC2)C1
AC50 (Cytochrome P450 3A4): 20 µM (inconclusive)

COc1ccc(NC(=O)Cn2cccc2)c(OC)c1
AC50 (Cytochrome P450 2C9): 7.08 µM (inconclusive)

O=C(Oc1ccccc1[N+](=O)[O-])c1cccnc1
AC50 (Cytochrome P450 2C9): 15.8 µM (inconclusive)

Cc1ccnc(NC(=O)c2cccc(NC(=O)COc3ccccc3)c2)c1
AC50 (Cytochrome P450 2C9): 4.47 µM (inconclusive) | AC50 (Cytochrome P450 2D6): 17.8 µM (inconclusive)

COc1ccc(N2CCC(CN=C(S)Nc3c(C)cccc3C)C2)cc1 (stereo not given)
EC50 [2]: 2.76 µM (active) | IC50 (Large T antigen): 14.6 µM (active) | EC50 [3]: > 60 µM (not active)

COc1cccc(Nc2ncc3nc(C)c(=O)n(-c4ccccc4)c3n2)c1
AC50 (Cytochrome P450 2C19; read-out: AC50): 25.1 µM (inconclusive) | AC50 (Cytochrome P450 2C9): 31.6 µM (inconclusive)

COC(=O)[C@@]1(Cc2ccc(OC)cc2)[C@H]2c3cc(C(=O)N(C)C)n(CCc4ccccn4)c3C[C@H]2CN1C(=O)c1ccccc1
AC50 (Cytochrome P450 2C19; read-out: AC50): 39.8 µM (inconclusive)

Cn1c(=O)c(-c2cccs2)nc2cnc(N3CCNCC3)nc21
AC50 (Cytochrome P450 3A4): 25.1 µM (inconclusive) | AC50 (Cytochrome P450 2C9): 39.8 µM (inconclusive)

c1ccc2c(CNC3CCCCC3)c[nH]c2c1
AC50 (INS1): 8.45 µM (active)

O=Cc1sc(=O)n(Cc2cccc(C(=O)O)c2)c1Cl
EC50 (Protein RecA): 9.42 µM (active) | AC50 [4]: 16.5 µM (active) | IC50 (Large T antigen): 18.6 µM (active)

C/C(=C/C(=O)NCc1ccccc1)C(=O)O
AC50 (Cytochrome P450 2C19): inconclusive | AC50 (Cytochrome P450 2C9): 0.0398 µM (inconclusive)

COC(=O)[C@H](Cc1ccccc1)N(Cc1ccccc1)S(=O)(=O)N(Cc1ccccc1)[C@@H](Cc1ccccc1)C(=O)OC
AC50 (INS1): 4.51 µM (active)

CCNC(=O)C1CC(=O)OC12CCCCC2 (stereo not given)
AC50 (Cytochrome P450 2C9): 25.1 µM (inconclusive)

CC(C)C(NC(=O)C1CCCCC1)C(=O)NCc1ccccn1 (stereo not given)
AC50 (Cytochrome P450 3A4): 15.8 µM (inconclusive)

Cc1ccc(C(=O)COC(=O)c2ccccc2N2C(=O)C3C4CCC(C4)C3C2=O)cc1C (stereo not given)
AC50 (Cytochrome P450 2C9): 2 µM (inconclusive)

CCOC(=O)c1cc2c(=O)n3cccc(C)c3nc2n(CCOC)/c1=N\C(C)=O
EC50 [1]: > 195 µM (not active)

COc1cc(/C=N/NC(=O)CC#N)cc(Br)c1O
IC50 (Large T antigen): 9.57 µM (active)

COc1ccc(/C=N\NC(=O)C2C(=O)NCC2c2ccccc2)cc1O (stereo not given)
AC50 (Cytochrome P450 3A4): 39.8 µM (inconclusive) | AC50 (Cytochrome P450 2C9): 35.5 µM (inconclusive) | AC50 (Cytochrome P450 2D6): 7.94 µM (inconclusive)

CC1(C)CC(=O)C(/C=N/CCN2CCN(C(=S)Nc3ccc(F)cc3)CC2)=C(O)C1
AC50 (Cytochrome P450 3A4): 25.1 µM (inconclusive) | AC50 (Cytochrome P450 2C9): 25.1 µM (inconclusive)

Cc1ccc(C(=O)NCCNC(=O)CN2CCOCC2)cc1
AC50 (Cytochrome P450 3A4): 28.2 µM (inconclusive) | AC50 (Cytochrome P450 2C19; read-out: AC50): 0.708 µM (inconclusive)
